Data on 4 molecules can be found in publication PMC11887051, “Discovery of ONO-2920632 (VU6011887): A Highly Selective and CNS Penetrant TREK-2 (TWIK-Related K+ Channel 2) Preferring Activator In Vivo Tool Compound” (ACS Chemical Neuroscience, 2025).

Each structure is given as a SMILES string.

Data set [1] has as its target T1, TREK-1 (Homo sapiens, UniProt O95069).
T1 sequence (O95069 1-426): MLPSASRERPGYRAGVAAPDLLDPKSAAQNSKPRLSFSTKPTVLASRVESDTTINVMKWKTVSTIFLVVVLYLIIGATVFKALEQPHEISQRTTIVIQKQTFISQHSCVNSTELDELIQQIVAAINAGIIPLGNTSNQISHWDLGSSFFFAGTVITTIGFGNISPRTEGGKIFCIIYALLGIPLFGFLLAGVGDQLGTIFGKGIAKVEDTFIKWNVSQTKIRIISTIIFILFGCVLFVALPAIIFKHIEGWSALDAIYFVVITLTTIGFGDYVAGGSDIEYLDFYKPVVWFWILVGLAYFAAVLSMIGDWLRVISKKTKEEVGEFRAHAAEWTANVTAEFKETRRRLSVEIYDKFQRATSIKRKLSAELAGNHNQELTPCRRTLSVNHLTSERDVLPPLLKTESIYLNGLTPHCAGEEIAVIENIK
The arrangement: method as in PMID 31072652. As to conditions: previously reported; cited from earlier work.

For data set [2], the target named is T2, TREK-2 (Homo sapiens, UniProt P57789).
T2 sequence (P57789 1-538): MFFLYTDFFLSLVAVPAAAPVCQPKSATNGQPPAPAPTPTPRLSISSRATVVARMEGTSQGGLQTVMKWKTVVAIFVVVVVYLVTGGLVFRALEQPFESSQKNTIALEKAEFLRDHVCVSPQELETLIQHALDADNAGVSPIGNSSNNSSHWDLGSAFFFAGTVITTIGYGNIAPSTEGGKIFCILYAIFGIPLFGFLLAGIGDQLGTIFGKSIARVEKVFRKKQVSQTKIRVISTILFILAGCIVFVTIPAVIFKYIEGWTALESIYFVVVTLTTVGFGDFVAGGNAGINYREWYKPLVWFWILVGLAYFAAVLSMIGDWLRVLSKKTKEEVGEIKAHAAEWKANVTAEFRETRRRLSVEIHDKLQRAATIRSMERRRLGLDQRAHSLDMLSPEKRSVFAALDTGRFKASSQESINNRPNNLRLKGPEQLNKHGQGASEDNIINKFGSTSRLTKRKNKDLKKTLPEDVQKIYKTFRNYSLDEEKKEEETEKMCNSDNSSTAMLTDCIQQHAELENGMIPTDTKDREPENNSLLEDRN
On the set-up: method as in PMID 31072652. As to conditions: previously reported; cited from earlier work.

On the set-up of data set [3]: method as in PMID 31072652. As to conditions: previously reported; cited from earlier work.
Details of data set [4]: method as in PMID 31072652. As to conditions: previously reported; cited from earlier work. This is another data set of the same source.
Data set [5] addresses T1, TREK-1. Briefly: TREK-1 thallium flux assay (hTREK-1/CHO). Format: cell-based. The arrangement: host or cells: CHO. As to conditions: for Emax: % activation relative to 10 µM BL-1249. How it is done: (§1) Procedures for Biological Experiments
TREK-1 and TREK-2 thallium flux assay protocol
CHO cells stably expressing human TREK-1 (hTREK-1/CHO) were constructed at Evotec. […]
hTREK-1/CHO or hTREK-2/HEK were plated in 384-well plates at a density of 1.0x10^4 cells/well or 2.0x10^4 cells/well, respectively, and cultured overnight. After the wash by HBSS + 20 mM HEPES buffer, cells were loaded with Thallos dye for 1 hour at room temperature. After the wash […]
(§2) dissolved with HBSS + 20mM HEPES buffer were added to each well. After 10 minutes incubation at room temperature, thallium stimulus buffer were added to each well and the fluorescent intensity are measured by Panoptic. The final thallium concentration was 0.36 mM in […]
(§3) TREK-1 or 0.24 mM in TREK-2, respectively. […]

In data set [6] the target is T2, TREK-2. Briefly: TREK-2 thallium flux assay (hTREK-2/HEK). The arrangement: expressed in transfected cells; host or cells: HEK293. Particulars: for Emax: % activation relative to 10 µM BL-1249. In kind it is cell-based. The protocol:
as §1
TREK-1 and TREK-2 thallium flux assay protocol […]
HEK293 cells stably expressing human TREK-2 (hTREK-2/HEK) were constructed at Ono. hTREK-1/CHO or hTREK-2/HEK were plated in 384-well plates at a density of 1.0x10^4 cells/well or 2.0x10^4 cells/well, respectively, and cultured overnight. After the wash by HBSS + 20 mM HEPES buffer, cells were loaded with Thallos dye for 1 hour at room temperature. After the wash […]
as §2, §3

The target of data set [7] is T3, mouse TREK-1 (Mus musculus, UniProt P97438).
T3 sequence (P97438 1-426): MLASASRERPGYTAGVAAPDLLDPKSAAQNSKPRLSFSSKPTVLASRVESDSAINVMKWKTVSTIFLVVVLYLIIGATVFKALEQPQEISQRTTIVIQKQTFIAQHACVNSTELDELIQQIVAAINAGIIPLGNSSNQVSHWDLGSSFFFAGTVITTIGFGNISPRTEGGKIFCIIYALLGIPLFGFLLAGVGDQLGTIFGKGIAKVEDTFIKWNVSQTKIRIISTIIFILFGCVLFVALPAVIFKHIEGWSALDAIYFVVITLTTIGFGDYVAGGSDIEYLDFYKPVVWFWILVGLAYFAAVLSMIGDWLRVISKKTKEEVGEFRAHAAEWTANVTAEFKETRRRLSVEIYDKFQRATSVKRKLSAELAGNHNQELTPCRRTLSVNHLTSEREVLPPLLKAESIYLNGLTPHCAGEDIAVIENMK
Briefly: mouse TREK-1 MPC assay. In kind it is cell-based. Particulars: manual patch clamp.

Data set [8] has as its target T4, mouse TREK-2 (Mus musculus, UniProt Q8BUW1).
T4 sequence (Q8BUW1 1-535): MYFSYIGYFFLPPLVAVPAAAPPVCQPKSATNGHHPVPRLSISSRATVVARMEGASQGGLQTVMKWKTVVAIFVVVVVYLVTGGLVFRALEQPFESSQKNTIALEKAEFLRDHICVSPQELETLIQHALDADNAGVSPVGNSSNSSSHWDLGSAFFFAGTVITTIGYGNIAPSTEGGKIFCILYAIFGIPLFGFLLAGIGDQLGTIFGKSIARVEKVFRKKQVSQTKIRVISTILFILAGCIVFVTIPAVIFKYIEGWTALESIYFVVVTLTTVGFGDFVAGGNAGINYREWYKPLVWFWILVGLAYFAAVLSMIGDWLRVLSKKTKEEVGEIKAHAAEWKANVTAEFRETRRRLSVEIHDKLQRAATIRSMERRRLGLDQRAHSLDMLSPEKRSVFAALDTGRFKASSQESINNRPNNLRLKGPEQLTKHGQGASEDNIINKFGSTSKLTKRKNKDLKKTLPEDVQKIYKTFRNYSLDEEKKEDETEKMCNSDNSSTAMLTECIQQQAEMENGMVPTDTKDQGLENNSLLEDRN
Briefly: mouse TREK-2 MPC assay. Format: cell-based. Particulars: mouse, manual patch clamp. On the technique in general: In patch-clamp work, channel activity is measured electrically.

Data set [9] deals with T2, TREK-2. Briefly: human 86Rb flux K2P selectivity panel. In kind it is cell-based. Particulars: data is not shown.
The target in data set [10] is T1, TREK-1. Briefly: human 86Rb flux K2P selectivity panel. Format: cell-based. As to conditions: data is not shown.
For data set [11], the system named is TASK-1. Briefly: human 86Rb flux K2P selectivity panel. In kind it is cell-based. As to conditions: 86Rb flux K2P panel.
Data set [12] has as its system TASK-2. Briefly: human 86Rb flux K2P selectivity panel. As to conditions: 86Rb flux K2P panel. In kind it is cell-based.
Data set [13] has as its system TASK-3. Briefly: human 86Rb flux K2P selectivity panel. Format: cell-based. Particulars: 86Rb flux K2P panel.
Data set [14] relates to TRAAK. Briefly: human 86Rb flux K2P selectivity panel. As to conditions: 86Rb flux K2P panel. In kind it is cell-based.
The subject of data set [15] is TWIK-2. Briefly: human 86Rb flux K2P selectivity panel. Format: cell-based. As to conditions: 86Rb flux K2P panel.
Data set [16] concerns the target T5, TRESK (Homo sapiens, UniProt Q7Z418).
T5 sequence (Q7Z418 1-384): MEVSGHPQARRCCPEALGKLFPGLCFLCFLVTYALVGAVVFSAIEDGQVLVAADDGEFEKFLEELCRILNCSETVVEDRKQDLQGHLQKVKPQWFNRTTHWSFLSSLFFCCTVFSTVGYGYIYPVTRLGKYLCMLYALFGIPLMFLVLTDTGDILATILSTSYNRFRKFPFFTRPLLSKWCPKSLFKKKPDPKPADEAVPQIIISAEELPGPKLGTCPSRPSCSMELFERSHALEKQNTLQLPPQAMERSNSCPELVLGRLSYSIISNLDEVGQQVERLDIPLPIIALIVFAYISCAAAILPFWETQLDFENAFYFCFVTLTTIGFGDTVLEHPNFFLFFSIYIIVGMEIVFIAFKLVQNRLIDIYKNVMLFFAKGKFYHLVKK
Briefly: human 86Rb flux K2P selectivity panel. Format: cell-based. Particulars: 86Rb flux K2P panel.

Where [17] appears, read: control compound, table footnote.

As usually defined, the IC50 is the concentration needed to halve the response being measured. A high value points to a need for much substance. For the molecule `c1ccc(-c2nnn[nH]2)c(Nc2cccc3c2CCCC3)c1` [BL-1249, (5,6,7,8-tetrahydro-naphthalen-1-yl)-[2-(1H-tetrazol-5-yl)-phenyl]-amine, reference compound], the “TREK-1 Emax” value in [1] was 109 ± 14%. Moreover, the “TREK-2 Emax” value in [2] is 133 ± 23%. The “rat CLhep (predicted hepatic clearance)” value in data set [3] was more than 50.9 mL/min/kg. In addition, the rat plasma fu in data set [4] is less than 0.001. Also, the figures for the IC50 in data set [5] (setting [17]) and in data set [6] (setting [17]) were 5.2 µM and 7.3 µM, respectively.

On to `O=C(Nc1cc(F)c(Br)cc1C(=O)O)c1ccc(SC(F)(F)F)cc1` [Compound 8], for which the “TREK-1 Emax” value in data set [1] is 101%. In addition, in data set [2], the “TREK-2 Emax” value is 84%. For the same molecule, the “rat CLhep (predicted hepatic clearance)” value in data set [3] is recorded as 35.5 mL/min/kg. Further, the rat plasma fu in data set [4] is listed as 0.041.

For orientation: EC50 means the midpoint of the concentration-response curve. For orientation: Emax means the size of the effect at its maximum, as opposed to the concentration needed. In data set [5], `COc1cc(OC(F)(F)F)ccc1CNC(=O)c1ccc(-n2cncn2)nc1` [Compound 14b] yielded an EC50 of 1.5 µM and an Emax of 42%. In data set [6], this molecule gave an EC50 of 0.41 µM and an Emax of 158%. Also, in data set [6] (TREK-2 preference over TREK-1, thallium flux), the “Fold TREK-2” value was 3.7 fold.

On to `Cc1cc(OC(F)(F)F)ccc1CNC(=O)c1ccc(-n2cncn2)nc1` [Compound 14c], for which the EC50 in [7] is 2.8 µM; in data set [8], 0.31 µM; in data set [5], approximately 1.1 µM; in data set [6] it was 0.36 µM. In addition, the Emax worked out at 31% in [7], 72% in [8], 20% in [5] and 109% in data set [6]. In addition, the “activity at TREK-2 in 86Rb flux panel” value in data set [9] is recorded as “submicromolar TREK-2 activator”. For the same molecule, the “activity at TREK-1 in 86Rb flux panel” value in [10] is given as “partial TREK-1 activator”. Further, the “selectivity against TASK-1 over TREK-2” value in data set [11] is more than 43 fold. In addition, the “selectivity against TASK-2 over TREK-2” value in data set [12] was more than 43 fold. The “selectivity against TASK-3 over TREK-2” value in [13] is on record as more than 43 fold. Besides, the “selectivity against TRAAK over TREK-2” value in [14] is listed as more than 43 fold. Also, the “selectivity against TWIK-2 over TREK-2” value in data set [15] was more than 43 fold. For the same molecule, the “selectivity against TRESK over TREK-2” value in data set [16] was more than 43 fold.
